# What was measured:
# [1] = tested on: Lactobacillus fermentum; test: Bacterial inhibition test; assay type: cell-based; parameters: key: successful test corresponding to no growth is represented as (=); barely discernable growth is represented as (±); easily noticeable bacterial growth is represented as (+)
# Excerpt: (§1) To directly measure the efficacy of Penicillin G Procaine and Penicillin G Potassium a bacterial inhibition test was designed using industrial isolates and chosen ATCC strains. The inhibition testing was spread over 0.1 ppm to 5.0 ppm for the Lactobacillus fermentum and 1.0 ppm to 5.0 ppm for Lactobacillus brevis species of bacteria due to the lack of response of Lactobacillus brevis at lower concentrations. […] The strains used were two isolates of Lactobacillus fermentum and 2 isolates of Lactobacillus brevis. The Lactobacillus fermentum series contained both an industry derived isolate Ind 1 and an ATCC strain while the Lactobacillus brevis series comprised of two isolates, Ind 1 and Ind 43 derived from the ethanol plants. The inhibition test plates were set in triplicate and read at 12 hour intervals up to 48 hours of test endpoint. The results below represent the mode average of the outcome from the triplicate inhibitory test sets for each trial. Table 11 lists the Lactobacillus fermentum and the Lactobacillus brevis results of the inhibition testing as follows: successful test corresponding to no growth is represented as (=), barely discernable growth is represented as (±) and easily noticeable bacterial growth is represented as (+). The set of control tests depict (=) control as just broth and (+) control as just broth with bacteria but without any antibiotic.
# (§2) The trial was set up as follows:
# (§3) • 1. Weigh out 0.1 g of each sample to be tested into a 15 ml centrifuge tube. • 2. Dissolve sample into 10 ml sterile water. […] Add antibiotic to clean tube, add 2 ml water. • b. Vortex, if antibiotic goes into solution add water for final volume of 10 ml. • c. […] Vortex until all material is in solution. • 3. Vortex the solutions to make sure that they are well mixed. • 4. Filter the solutions through a 0.2 μm syringe filter into a second labeled sterile centrifuge tube. • 5. Add antibiotic solution to MRS Broth for a final volume of 10 ml at the test concentration for each antibiotic. • 6. Mix organism solutions and add 2 μl to each of 3 wells of a 24 well plate. If tubes are used add the 2 μl to each of three tubes for each antibiotic. • 7. Transfer 1 ml of the antibiotic-broth solution to each well containing bacteria. • 8. Recap remaining antibiotic solution and return the tube to the tube rack. This tube will become the negative control for each dilution created. • 9. Add four μl of each bacterial culture to another set of wells and add […] of broth without antibiotics. These wells will be the positive controls. • 10. Incubate plates and tubes at 33 C for 48 hours, examining all samples at 24 hours for growth. Any turbidity detected should be a result of bacterial growth.
# [2] = tested on: Lactobacillus brevis; test: Bacterial inhibition test; assay type: cell-based; parameters: key to bacterial growth in inhibition test: successful test corresponding to no growth is represented as (=); barely discernable growth is represented as (±); easily noticeable bacterial growth is represented as (+)
# Excerpt: as §1, §2, §3
smiles,measurement,setting,value
CC1(C)S[C@@H]2[C@H](NC(=O)Cc3ccccc3)C(=O)N2[C@H]1C(=O)[O-].[K+] [Penicillin G Potassium],bacterial growth in inhibition test,"[1]; ATCC L. fermentum, 0.1 ppm, Inc Time 12",=
same,bacterial growth in inhibition test,"[1]; ATCC L. fermentum, 0.1 ppm, Inc Time 24",=
same,bacterial growth in inhibition test,"[1]; ATCC L. fermentum, 0.1 ppm, Inc Time 36",±
same,bacterial growth in inhibition test,"[1]; ATCC L. fermentum, 0.1 ppm, Inc Time 48",±
same,bacterial growth in inhibition test,"[1]; ATCC L. fermentum, 0.3 ppm, Inc Time 12",=
same,bacterial growth in inhibition test,"[1]; ATCC L. fermentum, 0.3 ppm, Inc Time 24",=
same,bacterial growth in inhibition test,"[1]; ATCC L. fermentum, 0.3 ppm, Inc Time 36",=
same,bacterial growth in inhibition test,"[1]; ATCC L. fermentum, 0.3 ppm, Inc Time 48",=
same,bacterial growth in inhibition test,"[1]; ATCC L. fermentum, 0.5 ppm, Inc Time 12",=
same,bacterial growth in inhibition test,"[1]; ATCC L. fermentum, 0.5 ppm, Inc Time 24",=
same,bacterial growth in inhibition test,"[1]; ATCC L. fermentum, 0.5 ppm, Inc Time 36",=
same,bacterial growth in inhibition test,"[1]; ATCC L. fermentum, 0.5 ppm, Inc Time 48",=
same,bacterial growth in inhibition test,"[1]; ATCC L. fermentum, 1 ppm, Inc Time 12",=
same,bacterial growth in inhibition test,"[1]; ATCC L. fermentum, 1 ppm, Inc Time 24",=
same,bacterial growth in inhibition test,"[1]; ATCC L. fermentum, 1 ppm, Inc Time 36",=
same,bacterial growth in inhibition test,"[1]; ATCC L. fermentum, 1 ppm, Inc Time 48",=
same,bacterial growth in inhibition test,"[1]; ATCC L. fermentum, 5 ppm, Inc Time 12",=
same,bacterial growth in inhibition test,"[1]; ATCC L. fermentum, 5 ppm, Inc Time 24",=
same,bacterial growth in inhibition test,"[1]; ATCC L. fermentum, 5 ppm, Inc Time 36",=
same,bacterial growth in inhibition test,"[1]; ATCC L. fermentum, 5 ppm, Inc Time 48",=
same,bacterial growth in inhibition test,"[1]; Ind 1 L. fermentum, 0.1 ppm, Inc Time 12",=
same,bacterial growth in inhibition test,"[1]; Ind 1 L. fermentum, 0.1 ppm, Inc Time 24",±
same,bacterial growth in inhibition test,"[1]; Ind 1 L. fermentum, 0.1 ppm, Inc Time 36",±
same,bacterial growth in inhibition test,"[1]; Ind 1 L. fermentum, 0.1 ppm, Inc Time 48",±
same,bacterial growth in inhibition test,"[1]; Ind 1 L. fermentum, 0.3 ppm, Inc Time 12",=
same,bacterial growth in inhibition test,"[1]; Ind 1 L. fermentum, 0.3 ppm, Inc Time 24",=
same,bacterial growth in inhibition test,"[1]; Ind 1 L. fermentum, 0.3 ppm, Inc Time 36",±
same,bacterial growth in inhibition test,"[1]; Ind 1 L. fermentum, 0.3 ppm, Inc Time 48",±
same,bacterial growth in inhibition test,"[1]; Ind 1 L. fermentum, 0.5 ppm, Inc Time 12",=
same,bacterial growth in inhibition test,"[1]; Ind 1 L. fermentum, 0.5 ppm, Inc Time 24",=
same,bacterial growth in inhibition test,"[1]; Ind 1 L. fermentum, 0.5 ppm, Inc Time 36",=
same,bacterial growth in inhibition test,"[1]; Ind 1 L. fermentum, 0.5 ppm, Inc Time 48",=
same,bacterial growth in inhibition test,"[1]; Ind 1 L. fermentum, 1.0 ppm, Inc Time 12",=
same,bacterial growth in inhibition test,"[1]; Ind 1 L. fermentum, 1.0 ppm, Inc Time 24",=
same,bacterial growth in inhibition test,"[1]; Ind 1 L. fermentum, 1.0 ppm, Inc Time 36",=
same,bacterial growth in inhibition test,"[1]; Ind 1 L. fermentum, 1.0 ppm, Inc Time 48",=
same,bacterial growth in inhibition test,"[1]; Ind 1 L. fermentum, 5.0 ppm, Inc Time 12",=
same,bacterial growth in inhibition test,"[1]; Ind 1 L. fermentum, 5.0 ppm, Inc Time 24",=
same,bacterial growth in inhibition test,"[1]; Ind 1 L. fermentum, 5.0 ppm, Inc Time 36",=
same,bacterial growth in inhibition test,"[1]; Ind 1 L. fermentum, 5.0 ppm, Inc Time 48",=
same,bacterial growth in inhibition test,"[2]; Ind 1 L. brevis, 1 ppm, Inc Time 12",±
same,bacterial growth in inhibition test,"[2]; Ind 1 L. brevis, 1 ppm, Inc Time 24",+
same,bacterial growth in inhibition test,"[2]; Ind 1 L. brevis, 1 ppm, Inc Time 36",+
same,bacterial growth in inhibition test,"[2]; Ind 1 L. brevis, 1 ppm, Inc Time 48",+
same,bacterial growth in inhibition test,"[2]; Ind 1 L. brevis, 2 ppm, Inc Time 12",±
same,bacterial growth in inhibition test,"[2]; Ind 1 L. brevis, 2 ppm, Inc Time 24",+
same,bacterial growth in inhibition test,"[2]; Ind 1 L. brevis, 2 ppm, Inc Time 36",+
same,bacterial growth in inhibition test,"[2]; Ind 1 L. brevis, 2 ppm, Inc Time 48",+
same,bacterial growth in inhibition test,"[2]; Ind 1 L. brevis, 3 ppm, Inc Time 12",±
same,bacterial growth in inhibition test,"[2]; Ind 1 L. brevis, 3 ppm, Inc Time 24",+
same,bacterial growth in inhibition test,"[2]; Ind 1 L. brevis, 3 ppm, Inc Time 36",+
same,bacterial growth in inhibition test,"[2]; Ind 1 L. brevis, 3 ppm, Inc Time 48",+
same,bacterial growth in inhibition test,"[2]; Ind 1 L. brevis, 4 ppm, Inc Time 12",±
same,bacterial growth in inhibition test,"[2]; Ind 1 L. brevis, 4 ppm, Inc Time 24",+
same,bacterial growth in inhibition test,"[2]; Ind 1 L. brevis, 4 ppm, Inc Time 36",+
same,bacterial growth in inhibition test,"[2]; Ind 1 L. brevis, 4 ppm, Inc Time 48",+
same,bacterial growth in inhibition test,"[2]; Ind 1 L. brevis, 5 ppm, Inc Time 12",=
same,bacterial growth in inhibition test,"[2]; Ind 1 L. brevis, 5 ppm, Inc Time 24",=
same,bacterial growth in inhibition test,"[2]; Ind 1 L. brevis, 5 ppm, Inc Time 36",±
same,bacterial growth in inhibition test,"[2]; Ind 1 L. brevis, 5 ppm, Inc Time 48",+
same,bacterial growth in inhibition test,"[2]; Ind 43 L. brevis, 1 ppm, Inc Time 12",=
same,bacterial growth in inhibition test,"[2]; Ind 43 L. brevis, 1 ppm, Inc Time 24",+
same,bacterial growth in inhibition test,"[2]; Ind 43 L. brevis, 1 ppm, Inc Time 36",+
same,bacterial growth in inhibition test,"[2]; Ind 43 L. brevis, 1 ppm, Inc Time 48",+
same,bacterial growth in inhibition test,"[2]; Ind 43 L. brevis, 2 ppm, Inc Time 12",=
same,bacterial growth in inhibition test,"[2]; Ind 43 L. brevis, 2 ppm, Inc Time 24",+
same,bacterial growth in inhibition test,"[2]; Ind 43 L. brevis, 2 ppm, Inc Time 36",+
same,bacterial growth in inhibition test,"[2]; Ind 43 L. brevis, 2 ppm, Inc Time 48",+
same,bacterial growth in inhibition test,"[2]; Ind 43 L. brevis, 3 ppm, Inc Time 12",=
same,bacterial growth in inhibition test,"[2]; Ind 43 L. brevis, 3 ppm, Inc Time 24",+
same,bacterial growth in inhibition test,"[2]; Ind 43 L. brevis, 3 ppm, Inc Time 36",+
same,bacterial growth in inhibition test,"[2]; Ind 43 L. brevis, 3 ppm, Inc Time 48",+
same,bacterial growth in inhibition test,"[2]; Ind 43 L. brevis, 4 ppm, Inc Time 12",=
same,bacterial growth in inhibition test,"[2]; Ind 43 L. brevis, 4 ppm, Inc Time 24",±
same,bacterial growth in inhibition test,"[2]; Ind 43 L. brevis, 4 ppm, Inc Time 36",±
same,bacterial growth in inhibition test,"[2]; Ind 43 L. brevis, 4 ppm, Inc Time 48",+
same,bacterial growth in inhibition test,"[2]; Ind 43 L. brevis, 5 ppm, Inc Time 12",=
same,bacterial growth in inhibition test,"[2]; Ind 43 L. brevis, 5 ppm, Inc Time 24",±
same,bacterial growth in inhibition test,"[2]; Ind 43 L. brevis, 5 ppm, Inc Time 36",±
same,bacterial growth in inhibition test,"[2]; Ind 43 L. brevis, 5 ppm, Inc Time 48",+

# Reference: patent publication US8828696B2, “Use of Penicillin G Procaine as a selective antimicrobial agent in the production of alcohol by fermentation” (Lallemand Specialites, Inc, priority 2008, dated 2014)
